ChEMBL document CHEMBL1128886, “Synthesis and pharmacological evaluation of a novel series of 5-aryl benzimidazole angiotensin II receptor antagonists” (1995)
Activity calls are given as the source filed them. No cut-off for these calls is given here.

Key:
[1] = target: T1, Type-1 angiotensin II receptor (Oryctolagus cuniculus) (UniProt P34976); assay: In vitro antagonist activity against Angiotensin II Receptor (Ang II) in isolated rabbit thoracic aorta.; assay type: functional, tissue-based
T1 sequence (whole entry): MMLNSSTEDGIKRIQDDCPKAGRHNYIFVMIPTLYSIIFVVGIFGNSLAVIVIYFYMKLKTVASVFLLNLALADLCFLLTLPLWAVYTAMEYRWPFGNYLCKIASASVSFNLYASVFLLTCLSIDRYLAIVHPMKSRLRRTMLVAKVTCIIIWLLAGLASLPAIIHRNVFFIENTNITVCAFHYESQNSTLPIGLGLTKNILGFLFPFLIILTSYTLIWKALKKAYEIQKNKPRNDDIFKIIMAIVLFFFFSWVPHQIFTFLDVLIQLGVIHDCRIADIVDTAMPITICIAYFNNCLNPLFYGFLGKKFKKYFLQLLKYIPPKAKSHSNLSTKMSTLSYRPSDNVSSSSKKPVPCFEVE

[2] = system: Rattus norvegicus; assay: Evaluated in vivo for its ability to block the pressor response to Ang II in pithed rats following oral administration; NA means not active at the dose (10 mg/kg) and time tested (4 h); assay type: functional, organism-based
[3] = system: Rattus norvegicus; assay: Evaluated in vivo for its ability to block the pressor response to Ang II in pithed rats following oral administration.; assay type: functional

Compound | pKB [1] | KB [2] | KB [3]
CCCCCC[C@H](C(=O)N1C[C@@H](Oc2ccccc2)C[C@H]1C(=O)O)n1cnc(NC(=O)c2ccccc2S(=O)(=O)O)c1 | 9.1 |  | 
CCCCCC[C@@H](C(=O)N1C[C@@H](Oc2ccc(CC(=O)O)cc2)C[C@H]1C(=O)O)n1cnc2cc(-c3ccccc3S(=O)(=O)O)ccc21 | 7.8 |  | 
CCCCCC[C@@H](C(=O)N1C[C@@H](Oc2ccc(CC(=O)O)cc2)C[C@H]1C(=O)O)n1cnc(NC(=O)c2ccccc2S(=O)(=O)O)c1 | 8.4 | inactive | 
CCCCCCC(C(=O)O)n1cnc2cc(-c3ccccc3S(=O)(=O)O)ccc21 (stereo in doubt) | 5.6 |  | 
CCCCCC[C@@H](C(=O)N1C[C@@H](Oc2ccccc2)C[C@H]1C(=O)O)n1cnc(NC(=O)c2ccccc2S(=O)(=O)O)c1 | 7.6 |  | 
CCCCCCC(C(=O)O)n1cnc(NC(=O)c2ccccc2S(=O)(=O)O)c1 (centres undefined) | 7.2 | inactive | 
CCCCCC[C@H](C(=O)N1C[C@@H](Oc2ccc(CC(=O)O)cc2)C[C@H]1C(=O)O)n1cnc(NC(=O)c2ccccc2S(=O)(=O)O)c1 | 9.7 |  | 2.8 mg/kg
CCCCCCC(C(=O)O)n1cnc2cc(-c3ccccc3S(=O)(=O)O)ccc21 (stereo in doubt; 4) | 7.7 | inactive | 
CCCCCC[C@H](C(=O)N1C[C@@H](Oc2ccc(CC(=O)O)cc2)C[C@H]1C(=O)O)n1cnc2cc(-c3ccccc3S(=O)(=O)O)ccc21 | 9 | inactive | 
